In brackets after ≈: the same amount, converted by molar mass. Like-named read-outs stand apart in the source and are kept apart here.
What was measured:
Assay type in all cases: cell-based
E. coli = assay: Inhibition of bacterial growth on agar plates; settings: preliminary studies
[1] = tested on: E. coli isolates from subject E. coli 1; assay: MIC in M9 minimal media of clinical isolates, subject E. coli 1; settings: Escherichia coli
Procedure: The E. coli and P. mirabilis strains were cultured on Trypticase Soy Agar/5% blood plates (Becton Dickinson BBL), in cation adjusted Mueller-Hinton II Broth, or in M9 minimal salts (Becton Dickinson) broth containing 0.4% glucose and 200 uM MgSO4. L-Norvaline (Sigma-Aldrich) was prepared at a concentration of 6.4 mg/ml in […], in a final volume of approx 0.5 ml, and stored at −20° C. until required.
Minimum inhibitory concentrations (MICs) were determined using the CLSI (Clinical and Laboratory Standards Institute, formerly NCCLS) recommended broth microdilution methodology [NCCLS, 2003] using defined media.
Throughout this study E. coli and P. mirabilis strains were cultured on Trypticase Soy Agar/5% blood plates, on M9 salts/1.2% Bacto Agar plates, in Cation Adjusted Mueller-Hinton II Broth (CAMHB), or in M9 Minimal Salt Broth containing 0.4% glucose and 200 μM MgSO4. GSK2251052 and norvaline were prepared at a concentration of 6.4 mg/mL (free base) in 100% DMSO and 100% water respectively, aliquoted in 0.5 mL individual stocks, and stored at −20° C. until required.
Minimum inhibitory concentrations (MICs) were determined for each organism using the CLSI (Clinical and Laboratory Standards Institute) recommended broth microdilution methodology [CLSI, 2009].
Strains tested are detailed in Table 15. MICs for norvaline and GSK2251052 could only be determined for E. coli isolates from subject E. coli 1 (Table 16) as M9 Minimal Media could not sustain growth of E. coli isolates from subject E. coli 2 (isolates 2a-2o) or P. mirabilis isolates (isolates 3a-3c) from subject E. coli 3. […] This phenotype is consistent with a mutation in the editing site of LeuRS, which could also be responsible for the concomitant decrease in susceptibility to GSK2251052 observed in isolates from Days 2, 3 and 4 (Table 16).

[2] = tested on: P. aeruginosa ATCC 27853 wild type and mutants; assay: MIC in M9 minimal media; settings: Pseudomonas aeruginosa, read-out: MICs in M9 minimal media
Procedure: (§1) Spontaneous Resistance Frequency was determined in vitro for GSK2251052 and the resistance mutants in E. coli ATCC 25922, K. pneumoniae ATCC 13883, and P. aeruginosa ATCC 27853 strains were characterized. GSK2251052 was prepared as described in U.S. Pat. No. 7,816,344 (the entire contents of which are hereby incorporated by reference herein). LB broth, Mueller Hinton II broth (adjusted), and Difco noble agar were obtained from Becton Dickinson (Cockeysville, Md., USA). M9 minimal broth containing 1×M9 salt, 0.5 μg/ML thiamine, 1 mM MgSO4, 0.1 mM CaCl2, 2% glucose, was obtained from Teknova (Hollister, Calif., USA). Antibacterial agents ciprofloxacin, ceftazidime, chloramphenicol, gentamycin, kanamycin, polymixin B, tobramycin and trimethoprim, and amino acids were obtained from Sigma Chemicals (St. Louis, Mo., USA). Strains were obtained from ATCC (Manassas, Va., USA).
(§2) Susceptibility tests were performed following the recommendations for aerobic bacteria (M7-A7) from the Clinical and Laboratories Standards Institute (CLSI).
(§3) The aminoacyl-tRNA synthetase enzyme, LeuRS, ensures the correct amino acid, leucine, is attached to tRNA^Leu. The LeuRS synthetic active site is capable of aminoacylating tRNA^Leu with amino acids structural similar to leucine (norvaline, norleucine, isoleucine and methionine). These mischarged tRNA^Leu are hydrolyzed by the editing domain, thus preventing the deleterious incorporation of incorrect amino acids into the growing polypeptide. The laboratory generated mutants were further tested for their ability to grow in defined media with exogenously added amino acids. Norvaline and norleucine, structurally similar to leucine, were tested in M9 minimal media. […]

[3] = tested on: E. coli ATCC 25922 wild type and mutants; assay: MIC in M9 minimal media; settings: Escherichia coli, read-out: MICs in M9 minimal media
Procedure: as §1, §2, §3

[4] = tested on: K. pneumoniae ATCC 13883 wild type and mutants; assay: MIC in M9 minimal media; settings: Klebsiella pneumoniae, read-out: MICs in M9 minimal media
Procedure: as §1, §2, §3

[5] = tested on: Escherichia coli 1161435 parent and mutant strains B4, B26 and B35; assay: Sensitivity to leucine analogs in MH and M9 media
[6] = tested on: P. aeruginosa ATCC 27853, E. coli ATCC 25922 and K. pneumoniae ATCC 13883; assay: MIC in M9 minimal media, three strains summarised; settings: all GSK2251052 resistant mutants
Procedure: as §1, §2
The aminoacyl-tRNA synthetase enzyme, LeuRS, ensures the correct amino acid, leucine, is attached to tRNA^Leu. The LeuRS synthetic active site is capable of aminoacylating tRNA^Leu with amino acids structural similar to leucine (norvaline, norleucine, isoleucine and methionine). […]

SMILES: CCC[C@H](N)C(=O)O [Norvaline, L-Norvaline]
- concentration at which a bacterial lawn could still be observed (E. coli): > 64 µg/mL
- MIC ([1]; 24 h, Isolate 1a, Blood, Day 1, read-out: MIC in M9 Minimal Media): 4 µg/mL (≈ 34.1 µM)
- MIC ([1]; 24 h, Isolate 1b, Urine, Day 1, read-out: MIC in M9 Minimal Media): 2 µg/mL (≈ 17.1 µM)
- MIC ([1]; 24 h, subject E. Coli 1, day 1, first line, no LeuRS change, read-out: Norvaline MIC in M9): 4 µg/mL (≈ 34.1 µM)
- MIC ([1]; 24 h, subject E. Coli 1, day 1, second line, no LeuRS change, read-out: Norvaline MIC in M9): 2 µg/mL (≈ 17.1 µM)
- MIC ([1]; 48 h, Isolate 1c, Blood, Day 2, read-out: MIC in M9 Minimal Media): 0.5 µg/mL (≈ 4.27 µM)
- MIC ([1]; 72 h, read-out: Norvaline MIC in M9): 0.5 µg/mL (≈ 4.27 µM)
- MIC ([1]; 96 h, Isolate 1e, Blood, Day 4, read-out: MIC in M9 Minimal Media): 0.5 µg/mL (≈ 4.27 µM)
- MIC ([1]; Isolate 1d, Blood, Day 3, read-out: MIC in M9 Minimal Media): 0.5 µg/mL (≈ 4.27 µM)
- MIC ([2]; ATCC27853, P 101 (leuRS T256P)): 4 µg/mL (≈ 34.1 µM)
- MIC ([2]; ATCC27853, P 106 (leuRS V342M)): 0.25 µg/mL (≈ 2.13 µM)
- MIC ([2]; ATCC27853, P 108 (leuRS T252P)): 0.25 µg/mL (≈ 2.13 µM)
- MIC ([2]; ATCC27853, P. aeruginosa ATCC27853): > 64 µg/mL
- MIC ([3]; ATCC25922, E 101(leuRS Y246H)): 4 µg/mL (≈ 34.1 µM)
- MIC ([3]; ATCC25922, E 102(leuRS D345G)): 0.5 µg/mL (≈ 4.27 µM)
- MIC ([3]; ATCC25922, E 107(leuRS G229S)): 1 µg/mL (≈ 8.54 µM)
- MIC ([3]; ATCC25922, E. coli ATCC25922): 32 µg/mL (≈ 273 µM)
- MIC ([4]; ATCC13883, K 104(leuRS D345Y)): 1 µg/mL (≈ 8.54 µM)
- MIC ([4]; ATCC13883, K 105(leuRS G229R)): 4 µg/mL (≈ 34.1 µM)
- MIC ([4]; ATCC13883, K 107(leuRS S227F)): 4 µg/mL (≈ 34.1 µM)
- MIC ([4]; ATCC13883, K 108(leuRS T248P)): 2 µg/mL (≈ 17.1 µM)
- MIC ([4]; ATCC13883, K 110(leuRS V338L)): 4 µg/mL (≈ 34.1 µM)
- MIC ([4]; ATCC13883, Klebsiella pneumoniae ATCC13883): 16 µg/mL (≈ 137 µM)
- MIC (sensitivity to leucine analogs) ([5]; 1161435 Parent, M9): > 128 µg/mL
- MIC (sensitivity to leucine analogs) ([5]; 1161435 Parent, MH): > 128 µg/mL
- MIC (sensitivity to leucine analogs) ([5]; B4 (P339L), M9): 2 µg/mL
- MIC (sensitivity to leucine analogs) ([5]; B4 (P339L), MH): > 128 µg/mL
- MIC (sensitivity to leucine analogs) ([5]; B26 (R334H), M9): 16 µg/mL
- MIC (sensitivity to leucine analogs) ([5]; B26 (R334H), MH): > 128 µg/mL
- MIC (sensitivity to leucine analogs) ([5]; B35 (D251N), M9): 64 µg/mL
- MIC (sensitivity to leucine analogs) ([5]; B35 (D251N), MH): > 128 µg/mL
- sensitivity of the mutants ([5]; mutant strains in M9 minimal media): most sensitivity
- sensitivity of the resistant mutants [6]: High sensitivity
